# Experimental data reported in US12545653B2, “Compound as PPAR agonist and application thereof” (USA Elixiria Biotech Inc., priority 2019, dated 2026).
# Assays:
# LN-229 cells = assay: Brain cancer model, LN-229 cells injected into the striatum, tumor volume; format: in vivo, mouse; settings: mice with LN-229 cells in striatum, 5 mg/kg body weight/day
# Protocol: The treatment lasted for a total of 30 days. The compounds was dissolved in DMSO and mixed into food pellets. The animals were given ad libitum access to the pellets. […] The difference is significant with P<0.05.
# PPARγ = target: T1, PPARγ (Homo sapiens, UniProt P37231); assay: In vitro transcriptional activity of PPARγ gene (PPRE-luciferase reporter, HEK 293 T cells); format: cell-based; settings: HEK 293 T cells transfected with PPARγ expression and PPRE-luc plasmids, 21 hours; read-out: EC50 of PPARγ gene activation
# T1 construct: expressed in transfected cells; host or cells: HEK 293 T cells
# T1 sequence (P37231 1-505): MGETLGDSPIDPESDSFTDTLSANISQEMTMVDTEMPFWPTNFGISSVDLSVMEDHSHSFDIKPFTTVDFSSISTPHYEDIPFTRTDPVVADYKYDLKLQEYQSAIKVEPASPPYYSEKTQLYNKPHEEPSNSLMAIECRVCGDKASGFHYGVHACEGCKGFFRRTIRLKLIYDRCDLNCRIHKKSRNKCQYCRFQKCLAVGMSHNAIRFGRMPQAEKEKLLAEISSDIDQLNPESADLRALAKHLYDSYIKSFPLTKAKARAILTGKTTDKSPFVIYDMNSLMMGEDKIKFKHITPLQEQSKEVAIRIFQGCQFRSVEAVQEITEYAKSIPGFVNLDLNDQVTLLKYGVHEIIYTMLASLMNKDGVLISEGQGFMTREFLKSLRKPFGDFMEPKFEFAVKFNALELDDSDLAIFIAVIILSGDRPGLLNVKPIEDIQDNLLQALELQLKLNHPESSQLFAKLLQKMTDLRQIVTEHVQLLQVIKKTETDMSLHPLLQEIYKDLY
# Source text: In this experiment, the PPARγ gene was used as target gene to detect the in vitro transcription activity of the compounds. The compounds of interest were detected was first dissolved with dimethyl sulfoxide (DMSO). […] First two plasmids were constructed: PPARγ protein expression plasmid and luciferase reporter plasmid. They are both from the lentiviral plasmid pLV-CMVIE-ZsGreen-Puro, whose DNA sequence contains the cytomegalovirus immediate early (CMVie) promoter, ZsGreen and Puro dual reporter. The PPARγ expression plasmid pLV-CMVIE-PPAR[…]-ZsGreen-Puro was constructed by cloning full-length coding sequences of the pertinent receptors into pHBLV-CMVIE-ZsGreen-Puro vector. To construct the luciferase (luc) reporter plasmid pLV-PPRE-luc-ZsGreen-Puro, the CMVie promoter in plasmid pHBLV-CMVIE-ZsGreenPuro was first replaced by a peroxisome proliferator responsive element (PPRE) containing fragments comprised the nucleotide sequence 50-[…], repeated four times in tandem, to generate a new plasmid, at a multiple cloning site of which the luc gene was then inserted. […] The compounds used for screening are representatives for compounds listed in Table 2, and Tables 3 of the present invention. […] Cells were distributed in 10-cm tissue culture plates at a density of 5.5 million cells per plate, and then transfected with the luciferase reporter plasmid (6 nanogram/plate) and the PPARγ expression plasmid (18 nanogram/plate). Cells were cultured for 6 hours. […] Then the cells were distributed in 96-well plates at a density of 20,000 cells per well. After incubation for 6 h, compounds or control with different concentration were placed into each well, resulting in the finical concentration of […] with each concentration in triplicate. Twenty-one hours later, promoter activation was detected by the addition of SteadyLite (PerkinElmer, Waltham, MA) and GloMax 96 Microplate Luminometer (Promega, Madison, WI). The amount of Luminometer emitted from each well is positively correlated with the expression of PPARγ gene. A three-parameter Sigmoid function curve was used to fit the obtained data. The abscissa represents the logarithmic value of the concentration, and the ordinate represents the percentage of PPARγ gene activation relative to those of the control. […] In Statistical analysis, the coefficient of variation is used to measure the robustness and repeatability of the experiment. […] The difference is significant with P<0.05. EC50 is a parameter of its activity.
# klotho gene = assay: In vivo brain transcriptional activity of klotho gene (RT-PCR of brain mRNA); parameters: species or system mouse; settings: 10 mg/kg body weight/day tail vein
# Protocol: To verify this hypothesis, adult male Kunming mice were used in the experiments. […] The injection volume is 8 ml/kg body weight. Dimethyl sulfoxide (DMSO) was used as a vehicle control of the compounds. […] The RNA was then reverse-transcribed to the cDNA, and quantified by SYBR Green fluorescence quantitative PCR kit (HaiGene) and a quantitative PCR system (Bio-Rad Min-Opticon Type 2) were used for real-time fluorescent quantitative polymerase chain reaction (RT-PCR). The mouse gene primers were design as follows: • KLOTHO-forward 5′-[…]-3′; • LOTHO-reverse 5′-[…]-3′; • GAPDH-forward 5′-[…]-3′; • GAPDH-reverse 5′-[…]-3′.
# Data analysis was performed using the 2^−ΔΔct method. Semi-quantitative values of gene expression were then normalized by the control mean.
# APP/PS1 transgenic mice = assay: Alzheimer's disease model, eight-arm radial water maze and brain gene expression; format: in vivo, mouse; settings: 30 days in food, 10 mg/kg body weight/day (donepezil 3 mg/kg body weight/day)
# Source text: A common indicator used in academia in memory and dementia experiments is the number of errors in the water maze (reference memory). More errors mean poorer memory. On the last 3 days of dosing, eight-arm radial water maze was used by experimenters who were blind to drug treatment. As a classic experimental instrument, to detect slight deficits in learning and memory, the eight-arm water maze is more sensitive than not only Morris maze, but also Six-arm radial water maze. For details, see reference 8: Alamed J et al. Two-day radial-arm water maze learning and memory task; robust resolution of amyloid-related memory deficits in transgenic mice [J]. […] This experiment uses an eight-arm water maze built in accordance with the above literature. The eight-arm water maze is placed in a basin with an interior diameter of 102 cm. Each arm measures 30 cm long, 14.5 cm wide, and 40 cm high. Escape platform is located at the end of one of the arms. In the reference memory version of the task described here, the goal arm is held constant for all trials, with a different start arm on successive trials. On day one, mice received 12 trials, with trials alternating between visible and hidden platform. On day 2 and 3, mice received 12 additional trials but the platform was kept hidden throughout the trials. Entry into an incorrect arm was scored as a spatial reference error. Errors were averaged into three trial blocks, with four blocks per day, e.g., the first block (the 1st to 3rd trial), the second block (the 4th to 6th trial), and so on. […]. The line charts were made with the number of blocks as the abscissa and the average of the number of errors as the ordinate. At the end of the experiments, the cerebral cortex and hippocampus of the mice were removed, RNA was extracted, and the expression of many genes was analyzed by semi-quantitative RT-PCR. […] The difference is significant with P<0.05.
# [1] = tested on: rat model of hyperglycemia-induced nephropathy; assay: Hyperglycemia-induced nephropathy model (streptozotocin); format: in vivo; settings: streptozotocin rats, 5 mg/kg body weight/day in food, 90 days
# Protocol: The method was as follows:
# Wild type Sprague-Dawley rats were used. The compounds was dissolved in DMSO and mixed into food pellets. The animals were given ad libitum access to the pellets. […] In addition, 3 days before compound treatment, the animal of group 2 to 4 were given a single intraperitoneal injection of streptozotocin, and 3 days later, blood glucose levels were measured from tail veins using a glucose meter. Animals with blood glucose levels above 500˜650 milligrams per deciliter were considered as hyperglycemia and were used for further study. No any side effect, or significant body weight changes, or significant dietary changes were found during the administration. After 90 days after initiation of treatment, blood pressure values were measured with the tail cuff system. The day before the kidneys were harvested, animals were placed in metabolic cages for 24 h for urine collection, and albumin to creatinine ratio (ACR) was measured. Animals were then fasted for 12 hours and sacrificed under anesthesia with a 10% chloral hydrate solution (0.3 g/kg). Serum samples were isolated and biochemical parameters were analyzed with by enzyme colorimetry in an automatic analyzer (Roche) to determine the FBG (fasting blood glucose) level (unit millimole/L). In addition, fasting insulin (FINS) levels, where the units are milliIU/L, were determined by enzyme-linked immunosorbent assay (ELISA) method with anti-rat insulin antibodies, and TNF-α was detected by rat tumor necrosis factor-α (TNF-α) ELISA kit (BD). […] The difference is significant with P<0.05.
structure (smiles),measurement,setting,value
"CCc1ccc(CC/C=C/c2ccc3c(c2)NC(=O)CC3)cc1 [ELB00727, (E)-7-(4-(4-ethylphenyl)but-1-en-1-yl)-3,4-dihydroquinolin-2(1H)-one]",tumor volume at 30 days compared with disease control group,LN-229 cells,significant tumor volume reduction
same,EC50,PPARγ,< 6.4 µM
same,mRNA level of klotho gene in the brain of the mouse relative to vehicle control group,klotho gene; after 10 days of continuous injection,more than twice
same,fold induction at 10 mg/kg,"klotho gene; Mus musculus, iv, 720 h, after 30 days of continuous injection, read-out: mRNA level of klotho gene in the brain of the mouse relative to vehicle control group",> 5
same,number of errors in water maze on the third day,APP/PS1 transgenic mice; 5 on the first day,~1
same,"reduction in the number of errors (reference memory), third day compared with first day",APP/PS1 transgenic mice; eight-arm water maze,significant
same,blood TNF-α level compared with disease control group,[1],significant TNF-α level reduction
same,insulin resistance index ISI=ln (FBG*FINS) compared with disease control group,[1],significant ISI increase
same,urine albumin to creatinine ratio (ACR) compared with disease control group,[1],significant ACR reduction
